# Laboratory results taken from US10770169B2, “Method of providing a treatment to a subject based on a dynamic pathway map” (THE REGENTS OF THE UNIVERSITY OF CALIFORNIA, priority 2010, dated 2020).
# System: panel of 55 breast cancer cell lines
# Assay: Cell growth inhibition assay (Cell Titer Glo, 72 h, 9 doses; GI50, TGI, LC50)
# Format: cell-based, human
# Details: value is the negative log10 of mol/L
compound,measurement,setting,value
O=C1NC(=O)/C(=C/c2ccc3nccc(-c4ccncc4)c3c2)S1 [GSK1059615B],GI50,"cell line 600MPE, censored GI50 values",6.31
same,GI50,cell line 600MPE,6.31
same,GI50,"cell line AU565, censored GI50 values",6.32
same,GI50,cell line AU565,6.32
same,GI50,"cell line BT474, censored GI50 values",6.80
same,GI50,"cell line BT549, censored GI50 values",5.73
same,GI50,"cell line CAMA1, censored GI50 values",5.77
same,GI50,"cell line HCC38, censored GI50 values",6.11
same,GI50,"cell line HCC70, censored GI50 values",6.75
same,GI50,"cell line HCC202, censored GI50 values",7.23
same,GI50,"cell line HCC1143, censored GI50 values",6.26
same,GI50,"cell line HCC1187, censored GI50 values",6.48
same,GI50,"cell line HCC1395, censored GI50 values",5.61
same,GI50,"cell line HCC1419, censored GI50 values",6.59
same,GI50,"cell line HCC1428, censored GI50 values",6.28
same,GI50,"cell line HCC1500, censored GI50 values",5.71
same,GI50,"cell line HCC1806, censored GI50 values",5.82
same,GI50,"cell line HCC1937, censored GI50 values",6.09
same,GI50,"cell line HCC1954, censored GI50 values",6.63
same,GI50,"cell line HCC2185, censored GI50 values",6.89
same,GI50,"cell line HCC3153, censored GI50 values",5.48
same,GI50,"cell line LY2, censored GI50 values",5.82
same,GI50,"cell line MCF7, censored GI50 values",5.53
same,GI50,"cell line MDAMB134VI, censored GI50 values",6.25
same,GI50,"cell line MDAMB175VII, censored GI50 values",6.18
same,GI50,"cell line MDAMB231, censored GI50 values",5.21
same,GI50,"cell line MDAMB361, censored GI50 values",5.84
same,GI50,"cell line MDAMB436, censored GI50 values",5.88
same,GI50,"cell line MDAMB453, censored GI50 values",6.52
same,GI50,"cell line MDAMB468, censored GI50 values",5.96
same,GI50,"cell line SKBR3, censored GI50 values",6.71
same,GI50,"cell line SUM52PE, censored GI50 values",6.89
same,GI50,"cell line SUM149PT, censored GI50 values",6.01
same,GI50,"cell line SUM159PT, censored GI50 values",6.73
same,GI50,"cell line SUM185PE, censored GI50 values",7.13
same,GI50,"cell line SUM1315MO2, censored GI50 values",6.49
same,GI50,"cell line T47D, censored GI50 values",6.58
same,GI50,"cell line UACC812, censored GI50 values",6.62
same,GI50,"cell line UACC893, censored GI50 values",6.89
same,GI50,"cell line ZR75B, censored GI50 values",6.51
same,GI50,"cell line ZR751, censored GI50 values",5.87
same,GI50,"cell line ZR7530, censored GI50 values",6.82
CC(=O)Nc1cccc(-n2c(=O)n(C3CC3)c(=O)c3c(Nc4ccc(I)cc4F)n(C)c(=O)c(C)c32)c1.C[S+](C)[O-] [GSK1120212B],GI50,"600MPE cell line, censored GI50 values",8.17
same,GI50,"BT549 cell line, censored GI50 values",5.17
same,GI50,"HCC70 cell line, censored GI50 values",8.18
same,GI50,"HCC202 cell line, censored GI50 values",10.23
same,GI50,"HCC1395 cell line, censored GI50 values",6.71
same,GI50,"HCC1419 cell line, censored GI50 values",7.23
same,GI50,"HCC1806 cell line, censored GI50 values",5.08
same,GI50,"HCC1954 cell line, censored GI50 values",6.53
same,GI50,"MDAMB134VI cell line, censored GI50 values",7.72
same,GI50,"MDAMB175VII cell line, censored GI50 values",7.94
same,GI50,"MDAMB231 cell line, censored GI50 values",6.86
same,GI50,"MDAMB415 cell line, censored GI50 values",6.13
same,GI50,"MDAMB453 cell line, censored GI50 values",6.61
same,GI50,"SUM149PT cell line, censored GI50 values",7.51
same,GI50,"SUM159PT cell line, censored GI50 values",7.93
same,GI50,"SUM1315MO2 cell line, censored GI50 values",7.19
same,GI50,cell line 600MPE,8.17
same,GI50,cell line AU565,4.82
same,GI50,cell line BT474,4.78
same,GI50,cell line BT483,4.78
same,GI50,cell line BT549,5.17
same,GI50,cell line CAMA1,4.78
same,GI50,cell line HCC38,4.78
same,GI50,cell line HCC70,8.18
same,GI50,cell line HCC202,10.23
same,GI50,cell line HCC1187,4.78
same,GI50,cell line HCC1395,6.71
same,GI50,cell line HCC1419,7.23
same,GI50,cell line HCC1428,4.78
same,GI50,cell line HCC1500,4.78
same,GI50,cell line HCC1806,5.08
same,GI50,cell line HCC1937,4.78
same,GI50,cell line HCC1954,6.53
same,GI50,cell line HCC2185,4.78
same,GI50,cell line HCC3153,4.78
same,GI50,cell line LY2,4.78
same,GI50,cell line MCF7,4.78
same,GI50,cell line MDAMB134V,7.72
same,GI50,cell line MDAMB157,4.78
same,GI50,cell line MDAMB175V,7.94
same,GI50,cell line MDAMB231,6.86
same,GI50,cell line MDAMB361,4.78
same,GI50,cell line MDAMB415,6.13
same,GI50,cell line MDAMB436,4.81
same,GI50,cell line MDAMB453,6.61
same,GI50,cell line MDAMB468,4.85
same,GI50,cell line SKBR3,4.78
same,GI50,cell line SUM52PE,5.06
same,GI50,cell line SUM149PT,7.51
same,GI50,cell line SUM159PT,7.93
same,GI50,cell line SUM185PE,4.78
same,GI50,cell line SUM1315MO,7.19
same,GI50,cell line T47D,4.78
same,GI50,cell line UACC812,4.78
same,GI50,cell line UACC893,4.81
same,GI50,cell line ZR75B,4.78
same,GI50,cell line ZR751,4.78
